Test results published in ChEMBL document CHEMBL1201862, “PubChem BioAssay data set” (2004).
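Exposure lasted 48 hours, with cells grown in 96-well plates and compounds tested at five concentrations. GI50 is the concentration that inhibits growth by half.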 The source made the active and inactive calls. Cut-off read from the data, not from the text of the source: active = GI50 up to about 1.1 µM and inactive = higher.

How the values were obtained:
Test in all cases: DTP human tumour cell line panel, 48 h
RXF 393 = tested on: RXF 393
KM12 = tested on: KM12
NCI-H522 = tested on: NCI-H522
HT-29 = tested on: HT-29
SNB-75 = tested on: SNB-75
NCI-H226 = tested on: NCI-H226
UACC-257 = tested on: UACC-257
DU-145 = tested on: DU-145
MDA-N = tested on: MDA-N
HCC 2998 = tested on: HCC 2998
UACC-62 = tested on: UACC-62
OVCAR-8 = tested on: OVCAR-8
TK-10 = tested on: TK-10
SK-MEL-5 = tested on: SK-MEL-5
PC-3 = tested on: PC-3
SK-MEL-2 = tested on: SK-MEL-2
Hs-578T = tested on: Hs-578T
MOLT-4 = tested on: MOLT-4
NCI-H460 = tested on: NCI-H460
786-0 = tested on: 786-0

Row | Structure (SMILES) | GI50 (RXF 393) | GI50 (KM12) | GI50 (NCI-H522) | GI50 (HT-29) | GI50 (SNB-75) | GI50 (NCI-H226) | GI50 (UACC-257) | GI50 (DU-145) | GI50 (MDA-N) | GI50 (HCC 2998) | GI50 (UACC-62) | GI50 (OVCAR-8) | GI50 (TK-10) | GI50 (SK-MEL-5) | GI50 (PC-3) | GI50 (SK-MEL-2) | GI50 (Hs-578T) | GI50 (MOLT-4) | GI50 (NCI-H460) | GI50 (786-0)
1 | Cn1c(=O)c2c(nc3n(Cc4ccccc4)c(=O)c(NCCBr)cn23)n(C)c1=O | 14.9 µM (inactive) | 63.5 µM (inactive) | 22.2 µM (inactive) | 41.2 µM (inactive) | 20 µM (inactive) | 19.9 µM (inactive) | 25.7 µM (inactive) | 27.8 µM (inactive) | 57.3 µM (inactive) | 16.1 µM (inactive) | 26.5 µM (inactive) | 14.7 µM (inactive) | 16.3 µM (inactive) | 26.2 µM (inactive) | 20.1 µM (inactive) | 17.2 µM (inactive) | 29 µM (inactive) | 45.6 µM (inactive) | 26.9 µM (inactive) | 19.3 µM (inactive)
2 | OC(c1cc(-c2ccc(Cl)cc2)nc2ccccc12)C1CCCCN1 (stereo not given) | 0.368 µM (active) | 2.26 µM (inactive) | 1.27 µM (inactive) | 1.9 µM (inactive) | 2.43 µM (inactive) | 4.21 µM (inactive) | 2.66 µM (inactive) | 1.74 µM (inactive) | 1.95 µM (inactive) | 2.08 µM (inactive) | 1.82 µM (inactive) | 2.08 µM (inactive) | 4.32 µM (inactive) | 2.24 µM (inactive) | 1.97 µM (inactive) | 2.03 µM (inactive) | 1.99 µM (inactive) | 2.37 µM (inactive) | 2.08 µM (inactive) | 1.93 µM (inactive)
3 | O=C1OC(c2ccccc2)=N/C1=C\c1ccc(N(CCCl)CCCl)cc1 | 42 µM (inactive) | > 92.3 µM (inactive) | 21.3 µM (inactive) | > 100 µM (inactive) | > 100 µM (inactive) | > 100 µM (inactive) | > 100 µM (inactive) | > 100 µM (inactive) | > 100 µM (inactive) | > 100 µM (inactive) | > 100 µM (inactive) | > 100 µM (inactive) | > 100 µM (inactive) | > 100 µM (inactive) | > 86.5 µM (inactive) | > 27.2 µM (inactive) | > 100 µM (inactive) | 44.9 µM (inactive) | > 77.4 µM (inactive) | > 94 µM (inactive)
4 | CCc1nc(N)nc(N)c1-c1ccc(N(C)Cc2ccccc2)c([N+](=O)[O-])c1 | 3.61 µM (inactive) | 0.191 µM (active) | 1.15 µM (inactive) | 0.0191 µM (active) | 2.22 µM (inactive) | 3.31 µM (inactive) | 2.58 µM (inactive) | 0.215 µM (active) | 0.0243 µM (active) | 0.345 µM (active) | 0.0357 µM (active) | 0.0466 µM (active) | 7.13 µM (inactive) | 0.022 µM (active) | 0.0557 µM (active) | 7.74 µM (inactive) | 10.2 µM (inactive) | 0.059 µM (active) | < 0.01 µM (active) | 0.0231 µM (active)
5 | O=C1C2=C(CC3=C(C2)CS(=O)(=O)C3)C(=O)C2=C1CC1=C(C2)CS(=O)(=O)C1 | 27.3 µM (inactive) | > 19.7 µM (inactive) | 11.3 µM (inactive) | 8.59 µM (inactive) | > 20.9 µM (inactive) | 24.4 µM (inactive) | 29 µM (inactive) | 48.2 µM (inactive) | 10.3 µM (inactive) | 20.6 µM (inactive) | 15.8 µM (inactive) | 24.2 µM (inactive) | 48.9 µM (inactive) | 16.3 µM (inactive) | 10.8 µM (inactive) | 32.4 µM (inactive) | > 32.4 µM (inactive) | 23.9 µM (inactive) | > 31.5 µM (inactive) | 25.9 µM (inactive)
6 | CCN(CC)CCSc1c(C(C)=O)c(=O)n(-c2ccccc2)c(=S)n1-c1ccccc1 | 1.9 µM (inactive) | 17.2 µM (inactive) | 2.21 µM (inactive) | 16.7 µM (inactive) | 33.3 µM (inactive) | > 40.3 µM (inactive) | 9.98 µM (inactive) | 3.08 µM (inactive) | 6.68 µM (inactive) | 11.9 µM (inactive) | 14.4 µM (inactive) | 3.46 µM (inactive) | 5.47 µM (inactive) | 13.8 µM (inactive) | 4.04 µM (inactive) | 15.5 µM (inactive) | 23.4 µM (inactive) | 2.77 µM (inactive) | 21.1 µM (inactive) | 1.8 µM (inactive)
7 | CCCC(=O)NC(Nc1ccc(S(=O)(=O)Nc2nc(C)cc(C)n2)cc1)(C(F)(F)F)C(F)(F)F | > 100 µM (inactive) | > 100 µM (inactive) | > 100 µM (inactive) | > 100 µM (inactive) | > 100 µM (inactive) | > 100 µM (inactive) | > 100 µM (inactive) | > 100 µM (inactive) | > 100 µM (inactive) | > 100 µM (inactive) | > 100 µM (inactive) | > 100 µM (inactive) | > 100 µM (inactive) | > 100 µM (inactive) | > 100 µM (inactive) | > 100 µM (inactive) | > 100 µM (inactive) | > 100 µM (inactive) | > 100 µM (inactive) | > 100 µM (inactive)
